Results published in a melting point compilation (Tetko et al.).

First: Cc1ccc(S(=O)(=O)OC2C=CS(=O)(=O)C2)cc1 (stereo not drawn)
Second: COCCNS(=O)(=O)c1ccc(C(=O)O)cc1
The melting point of the first is lower: 136 to 138 °C for the first, 254 to 256 °C for the second.

First: CN(C)CCN=C=S
Second: CN(CCO)CCC(=O)O
The melting point of the first is lower: 35 to 37 °C for the first, 89 to 91 °C for the second.

Compared with `Cc1cc(C(=O)CBr)ccc1O`, `COc1cc(C)ccc1C(=O)CBr` is lower in melting point: 119 to 121 °C for the first, 77 to 79 °C for the second.

First: Nc1ncccc1OCC1CCCCC1
Second: Cc1ccc(-c2nnc3n2CCCCC3)cc1N
The melting point of the first is lower: 117 to 119 °C for the first, 171 to 173 °C for the second.

First: NC(=O)N1CCC(C(=O)O)CC1
Second: NC(=O)N1CCCCC1C(=O)O (stereo not drawn)
The melting point of the first is higher: 193 to 195 °C for the first, 139 to 141 °C for the second.

First: Cc1c(-c2cccnc2)noc1N
Second: Sc1nnc(-c2ccccc2)s1
The melting point of the first is lower: 177 to 179 °C for the first, 199 to 201 °C for the second.

First: Nc1ccn(-c2ncccc2Cl)n1
Second: ClCc1nnc(-c2ccccc2Cl)o1
The melting point of the first is lower: 89 to 91 °C for the first, 91 to 93 °C for the second.

Compared with `O=C1NCC2(CCCCC2)O1`, `O=C(O)Cc1ccc(S(=O)(=O)N2CCCCC2)s1` is lower in melting point: 96 to 98 °C for the first, 81 to 83 °C for the second.

First: Cc1ccc(C(=O)NCC(=O)O)s1
Second: O=C(O)CCNC(=O)c1ccsc1
The melting point of the first is lower: 66 to 68 °C for the first, 235 to 237 °C for the second.

Compared with `NNC(=O)c1ccc(S(=O)(=O)N2CCCC2)cc1`, `CNS(=O)(=O)c1ccc(CCC(=O)O)cc1` is lower in melting point: 199 to 201 °C for the first, 188 to 190 °C for the second.

First: COc1cc(C=O)cc(Cl)c1OC(C)C
Second: CC(C)Oc1ccc(C(=O)O)cc1N
The melting point of the first is lower: 34 to 36 °C for the first, 115 to 117 °C for the second.

First: N#Cc1cnn(-c2nccs2)c1N
Second: N#Cc1ccc2[nH]cnc2c1
The melting point of the first is lower: 165 to 167 °C for the first, 203 to 205 °C for the second.

First: COc1cc(NC(=O)C2CC2C)c(C(=O)O)cc1OC (stereo not drawn)
Second: CC(=O)c1cc(C(=O)O)ccc1O
The melting point of the first is lower: 207 to 209 °C for the first, 239 to 241 °C for the second.

Compared with `C=CC(=O)Nc1ccc(Br)cc1`, `O=C(O)C1(C(=O)Nc2ccc(F)cc2)CC1` is lower in melting point: 197 to 199 °C for the first, 179 to 181 °C for the second.

First: N=C(N)NCCC(=O)O
Second: COCCNC(N)=O
The melting point of the first is higher: 220 to 224 °C for the first, 72 to 74 °C for the second.

First: CC(C)(CN)C(N)=O
Second: CC(C)(C)NCC(N)=O
The melting point of the first is higher: 72 to 74 °C for the first, 49 to 51 °C for the second.

First: O=S(=O)(Cl)c1c(Cl)ccc2c(Cl)ccnc12
Second: Cc1[nH]c2ccc(Cl)cc2c1C(=O)O
The melting point of the first is lower: 155 to 157 °C for the first, 193 to 195 °C for the second.

Compared with `CC(C)CC1NC(C(=O)O)CS1` (stereo not drawn), `Cc1sc(=O)n(CC(=O)O)c1C` is higher in melting point: 159 to 161 °C for the first, 186 to 188 °C for the second.

Compared with `CS(=O)(=O)c1cccc(C(N)=O)c1`, `O=C(NC=C(Cl)Cl)c1cccc(Br)c1` is lower in melting point: 177 to 179 °C for the first, 91 to 93 °C for the second.

First: CC1(C(=O)O)CCCN(C(=O)c2ccccc2)C1 (stereo not drawn)
Second: O=C(O)CCCNC(=O)OCc1ccccc1
The melting point of the first is higher: 151 to 153 °C for the first, 60 to 64 °C for the second.

Compared with `O=C(CCl)Nc1cccc(C(=O)Nc2cccc(C(F)(F)F)c2)c1`, `Nc1ccccc1C(=O)Nc1ccc2c(c1)OCCO2` is lower in melting point: 197 to 199 °C for the first, 117 to 119 °C for the second.

First: NC(=O)c1cccnc1NC1CCN(Cc2ccccc2)CC1
Second: O=C(Cc1ccccc1)c1nc2ccccc2s1
The melting point of the first is lower: 73 to 75 °C for the first, 110 to 112 °C for the second.

Compared with `CC(C)(C)C(=O)N1CCNCC1`, `O=C(O)c1cc2c(c(S(=O)(=O)Cl)c1)CCCC2` is higher in melting point: 52 to 54 °C for the first, 193 to 195 °C for the second.

First: CC(=O)c1ccc(-c2ccccc2)s1
Second: Cc1[nH]c(C2CCCN2)nc1-c1ccccc1 (stereo not drawn)
The melting point of the first is lower: 115 to 117 °C for the first, 164 to 166 °C for the second.

First: CCOC(=O)CC(O)c1ccc(OCc2ccccc2)cc1 (stereo not drawn)
Second: CCOC(=O)Cc1ncccc1C(=O)O
The melting point of the first is lower: 61 to 63 °C for the first, 128 to 130 °C for the second.

Compared with `O=C(O)c1c[nH]c(-c2cccc([N+](=O)[O-])c2)n1`, `COc1ccc(Nc2nc(C(=O)O)cs2)cc1` is higher in melting point: 184 to 186 °C for the first, 239 to 241 °C for the second.

First: CN(C)S(=O)(=O)CC(=O)O
Second: COCCNS(=O)(=O)c1ccc(C)c(C(=O)O)c1
The melting point of the first is lower: 130 to 132 °C for the first, 137 to 139 °C for the second.

First: CN(C)c1cc(C#N)c2ccccc2n1
Second: CCn1c(=O)c(C)nc2cc(C(=O)O)ccc21
The melting point of the first is lower: 119 to 121 °C for the first, 204 to 206 °C for the second.

Compared with `COC(=O)c1cc(Cl)cc(Cl)c1N`, `Nc1cnncc1Cl` is higher in melting point: 65 to 67 °C for the first, 79 to 81 °C for the second.

First: O=C(O)CNC1=NS(=O)(=O)c2ccccc21
Second: O=C(O)c1ccc(OC2CCC2)cc1
The melting point of the first is lower: 160 to 162 °C for the first, 191 to 193 °C for the second.

First: O=c1[nH]nc(-c2ccc(F)cc2)c2ccccc12
Second: Nc1ccc(-c2n[nH]c(=O)[nH]2)cc1
The melting point of the first is lower: 270 to 272 °C for the first, 333 to 335 °C for the second.

Compared with `COCC1(C)CNC(=O)C1` (stereo not drawn), `Cc1c[nH]c(=O)n1-c1ccc(F)c(F)c1` is higher in melting point: 62 to 64 °C for the first, 250 to 252 °C for the second.

Compared with `O=C(O)c1cncc(OCC(F)F)c1`, `Cc1noc(C(F)(F)F)c1C(=O)O` is lower in melting point: 166 to 168 °C for the first, 140 to 142 °C for the second.

First: O=c1[nH]cnc2cc(F)c(F)cc12
Second: Cc1cccc(/C=C/c2cc(C(=O)O)c3cc(Br)ccc3n2)c1
The melting point of the first is lower: 264 to 266 °C for the first, 286 to 288 °C for the second.

First: CCCC(C)NC(=O)C(C)Cl (stereo not drawn)
Second: CCC(CC)NC(=O)C(=O)NN
The melting point of the first is lower: 51 to 53 °C for the first, 177 to 179 °C for the second.

First: CC(=O)NC(=O)CCl
Second: CN1C(=O)CCC(C(=O)O)C1c1ccc(C(F)(F)F)cc1 (stereo not drawn)
The melting point of the first is lower: 113 to 115 °C for the first, 188 to 190 °C for the second.

For `O=Cc1c(Cl)cccc1N1CCOCC1`, the melting point was 74 to 76 °C.
